Reference: PubChem BioAssay AID330 (DTP/NCI, 2004)
Several values for one entry are separate records, joined by “and”; a condition that tells them apart may be missing. Equal values may be shown once. Inconclusive results and toxic doses are left out. How the source made its calls: active means survival T/C of 150% or more; inactive means T/C below 125% in these data.

System: P388 leukemia ip, CD2F1 mice, survival T/C
Assay: NCI In Vivo Anticancer Drug Screen. Data for tumor model P388 Leukemia (intraperitoneal) in CD2F1 (CDF1) mice
Details: endpoint: median survival time, higher = longer survival
Method in brief: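 Mice carrying the transplanted tumor received test compound or vehicle. Survival was recorded in each group, and the value is the treated-group measurement divided by that of the vehicle-treated control group.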

Measured: T/C

CCCCCCCC/C=C\CCCCCCCC(=O)OCCN(CCOC(=O)CCCCCCC/C=C/CCCCCCCC)C(=O)COC(=O)CCCCCCC/C=C\CCCCCCCC
inactive: dose: 50.0 mg/kg/injection, schedule: Q01DX009 (ip), vehicle: saline with Tween-80 104 % of control | dose: 100.0 mg/kg/injection, schedule: Q01DX009 (ip), vehicle: saline with Tween-80 104 % of control | dose: 200.0 mg/kg/injection, schedule: Q01DX009 (ip), vehicle: saline with Tween-80 104 % of control

Cc1nc([N+](=O)[O-])cn1-c1nc2ccccn2c1[N+](=O)[O-]
inactive: dose: 50.0 mg/kg/injection, schedule: Q01DX009 (ip), vehicle: Klucel (hydroxypropylcellulose) (HPC) 92 % of control | dose: 100.0 mg/kg/injection, schedule: Q01DX009 (ip), vehicle: Klucel (hydroxypropylcellulose) (HPC) 94 % of control | dose: 200.0 mg/kg/injection, schedule: Q01DX009 (ip), vehicle: Klucel (hydroxypropylcellulose) (HPC) 91 % of control

CCOC(=O)c1ccc(N/N=C\C(C)=N/NC(=S)NC)cc1
inactive: dose: 100.0 mg/kg/injection, schedule: Q01DX001 (ip), vehicle: saline 108 % of control | dose: 200.0 mg/kg/injection, schedule: Q01DX001 (ip), vehicle: saline 108 % of control | dose: 400.0 mg/kg/injection, schedule: Q01DX001 (ip), vehicle: saline 100 % of control

OCc1nc(-c2ccccc2)sc1-c1cnc2ccccc2n1
inactive: dose: 100.0 mg/kg/injection, schedule: Q04DX002 (ip), vehicle: Klucel (hydroxypropylcellulose) (HPC) 104 % of control | dose: 200.0 mg/kg/injection, schedule: Q04DX002 (ip), vehicle: Klucel (hydroxypropylcellulose) (HPC) 99 % of control | dose: 400.0 mg/kg/injection, schedule: Q04DX002 (ip), vehicle: Klucel (hydroxypropylcellulose) (HPC) 101 % of control

O=[N+]([O-])c1ccc(Cl)c(C(Nc2nncs2)Nc2nncs2)c1
inactive: dose: 60.0 mg/kg/injection, schedule: Q01DX005 (ip), vehicle: Klucel (hydroxypropylcellulose) (HPC) 91 % of control | dose: 120.0 mg/kg/injection, schedule: Q01DX005 (ip), vehicle: Klucel (hydroxypropylcellulose) (HPC) 104 % of control | dose: 240.0 mg/kg/injection, schedule: Q01DX005 (ip), vehicle: Klucel (hydroxypropylcellulose) (HPC) 119 % of control

Nc1ccc2c(=O)[nH]cnc2c1
inactive: dose: 12.0 mg/kg/injection, schedule: Q01DX005 (ip), vehicle: Klucel (hydroxypropylcellulose) (HPC) 101 % of control | dose: 25.0 mg/kg/injection, schedule: Q01DX005 (ip), vehicle: Klucel (hydroxypropylcellulose) (HPC) 108 % of control | dose: 50.0 mg/kg/injection, schedule: Q01DX005 (ip), vehicle: Klucel (hydroxypropylcellulose) (HPC) 106 % of control and 116 % of control | dose: 100.0 mg/kg/injection, schedule: Q01DX005 (ip), vehicle: Klucel (hydroxypropylcellulose) (HPC) 104 % of control

Nc1csc(Nc2c3ccccc3nc3ccccc23)n1
inactive: dose: 12.5 mg/kg/injection, schedule: Q04DX002 (ip), vehicle: distilled water + Tween-80 98 % of control | dose: 25.0 mg/kg/injection, schedule: Q04DX002 (ip), vehicle: distilled water + Tween-80 97 % of control

O=C1OCc2c1[nH]c(=O)[nH]c2=O
inactive: dose: 6.25 mg/kg/injection, schedule: Q01DX009 (ip), vehicle: distilled water + Tween-80 105 % of control | dose: 12.5 mg/kg/injection, schedule: Q01DX009 (ip), vehicle: distilled water + Tween-80 96 % of control | dose: 25.0 mg/kg/injection, schedule: Q01DX009 (ip), vehicle: distilled water + Tween-80 110 % of control | dose: 50.0 mg/kg/injection, schedule: Q01DX009 (ip), vehicle: distilled water + Tween-80 100 % of control | dose: 100.0 mg/kg/injection, schedule: Q01DX009 (ip), vehicle: distilled water + Tween-80 105 % of control and 109 % of control | dose: 200.0 mg/kg/injection, schedule: Q01DX009 (ip), vehicle: distilled water + Tween-80 98 % of control | dose: 400.0 mg/kg/injection, schedule: Q01DX009 (ip), vehicle: distilled water + Tween-80 90 % of control

c1ccc(C(NC2CC3CCC2C3)c2ccccc2)cc1 (configuration not stated)
inactive: dose: 37.5 mg/kg/injection, schedule: Q01DX009 (ip), vehicle: saline with Tween-80 100 % of control | dose: 75.0 mg/kg/injection, schedule: Q01DX009 (ip), vehicle: saline with Tween-80 95 % of control

COc1ccc2c3c([nH]c2c1[N+](=O)[O-])C(C)N(S(=O)(=O)c1ccccc1)CC3 (configuration not stated)
inactive: dose: 8.5 mg/kg/injection, schedule: Q01DX005 (ip), vehicle: Klucel (hydroxypropylcellulose) (HPC) 95 % of control | dose: 17.0 mg/kg/injection, schedule: Q01DX005 (ip), vehicle: Klucel (hydroxypropylcellulose) (HPC) 97 % of control | dose: 34.0 mg/kg/injection, schedule: Q01DX005 (ip), vehicle: Klucel (hydroxypropylcellulose) (HPC) 104 % of control | dose: 68.0 mg/kg/injection, schedule: Q01DX005 (ip), vehicle: Klucel (hydroxypropylcellulose) (HPC) 95 % of control | dose: 136.0 mg/kg/injection, schedule: Q01DX005 (ip), vehicle: Klucel (hydroxypropylcellulose) (HPC) 89 % of control

COc1cccc2c1C(=N)c1c(O)c3c(c(O)c1C2=O)C[C@@](O)(C(C)=O)C[C@@H]3OC1CC(N)C(O)C(C)O1 (some centres not stated)
inactive: dose: 0.75 mg/kg/injection, schedule: Q04DX003 (ip), vehicle: water 112 % of control | dose: 1.5 mg/kg/injection, schedule: Q04DX003 (ip), vehicle: water 118 % of control | dose: 3.0 mg/kg/injection, schedule: Q04DX003 (ip), vehicle: water 124 % of control | dose: 6.0 mg/kg/injection, schedule: Q04DX003 (ip), vehicle: water 123 % of control and 124 % of control | dose: 8.0 mg/kg/injection, schedule: Q01DX009 (ip), vehicle: saline 91 % of control | dose: 8.0 mg/kg/injection, schedule: Q01DX009 (ip), vehicle: water 88 % of control and 94 % of control | dose: 12.0 mg/kg/injection, schedule: Q04DX003 (ip), vehicle: water 102 % of control | dose: 15.0 mg/kg/injection, schedule: Q04DX003 (ip), vehicle: water 98 % of control | dose: 24.0 mg/kg/injection, schedule: Q04DX003 (ip), vehicle: water 123 % of control | dose: 48.0 mg/kg/injection, schedule: Q04DX003 (ip), vehicle: water 116 % of control | dose: 96.0 mg/kg/injection, schedule: Q04DX003 (ip), vehicle: water 98 % of control
active: dose: 0.5 mg/kg/injection, schedule: Q01DX009 (ip), vehicle: water 153 % of control | dose: 1.0 mg/kg/injection, schedule: Q01DX009 (ip), vehicle: saline 158 % of control | dose: 1.0 mg/kg/injection, schedule: Q01DX009 (ip), vehicle: water 153 % of control and 175 % of control | dose: 2.0 mg/kg/injection, schedule: Q01DX009 (ip), vehicle: saline 153 % of control | dose: 2.0 mg/kg/injection, schedule: Q01DX009 (ip), vehicle: water 155 % of control and 186 % of control | dose: 3.24 mg/kg/injection, schedule: Q04DX003 (ip), vehicle: water 150 % of control | dose: 4.0 mg/kg/injection, schedule: Q01DX009 (ip), vehicle: water 150 % of control and 157 % of control | dose: 5.4 mg/kg/injection, schedule: Q04DX003 (ip), vehicle: water 161 % of control | dose: 9.0 mg/kg/injection, schedule: Q04DX003 (ip), vehicle: water 157 % of control

CN1C(=O)C2C(C(=O)O)C2N(C)C1=O (configuration not stated)
inactive: dose: 10.0 mg/kg/injection, schedule: Q04DX003 (ip), vehicle: saline 99 % of control | dose: 100.0 mg/kg/injection, schedule: Q04DX003 (ip), vehicle: saline 99 % of control | dose: 200.0 mg/kg/injection, schedule: Q04DX003 (ip), vehicle: saline 99 % of control and 101 % of control | dose: 400.0 mg/kg/injection, schedule: Q04DX003 (ip), vehicle: saline 100 % of control and 101 % of control

c1ccc2c(CC3NCCN3)cccc2c1
inactive: dose: 6.25 mg/kg/injection, schedule: Q01DX009 (ip), vehicle: saline 100 % of control | dose: 12.5 mg/kg/injection, schedule: Q01DX009 (ip), vehicle: saline 100 % of control | dose: 25.0 mg/kg/injection, schedule: Q01DX009 (ip), vehicle: saline 92 % of control

Cc1nn(C)c(Cl)c1C(=O)Nc1ccccc1
inactive: dose: 50.0 mg/kg/injection, schedule: Q01DX005 (ip), vehicle: saline with Tween-80 96 % of control | dose: 60.0 mg/kg/injection, schedule: Q01DX005 (ip), vehicle: saline with Tween-80 98 % of control | dose: 100.0 mg/kg/injection, schedule: Q01DX005 (ip), vehicle: saline with Tween-80 96 % of control | dose: 200.0 mg/kg/injection, schedule: Q01DX005 (ip), vehicle: saline with Tween-80 90 % of control | dose: 240.0 mg/kg/injection, schedule: Q01DX005 (ip), vehicle: saline with Tween-80 92 % of control

COc1cc2c(c(OC)c1OC)-c1ccc(=O)c(OC)cc1[C@@H](NC(=O)C(F)(F)F)CC2
inactive: dose: 2.5 mg/kg/injection, schedule: Q01DX009 (ip), vehicle: Klucel (hydroxypropylcellulose) (HPC) 105 % of control | dose: 5.0 mg/kg/injection, schedule: Q01DX009 (ip), vehicle: Klucel (hydroxypropylcellulose) (HPC) 97 % of control | dose: 10.0 mg/kg/injection, schedule: Q01DX009 (ip), vehicle: Klucel (hydroxypropylcellulose) (HPC) 96 % of control | dose: 20.0 mg/kg/injection, schedule: Q01DX009 (ip), vehicle: Klucel (hydroxypropylcellulose) (HPC) 105 % of control | dose: 40.0 mg/kg/injection, schedule: Q01DX009 (ip), vehicle: Klucel (hydroxypropylcellulose) (HPC) 102 % of control
